# According to patent US5028733A, “Prostaglandins” (National Research Development Corporation, priority 1980, dated 1991):
# Values joined by “and” are separate entries in the source; they are usually repeats but may differ in a detail not shown here. Identical values can stand only once.
# Assays:
# [1] = system: rabbit aorta; assay: Block of the contractile action of noradrenaline in the rabbit aorta strip test; format: cell-based; settings: in words
# [2] = system: platelet aggregation (collagen); assay: In vivo inhibition of platelet aggregation in guinea pigs (collagen); set-up: species or system male albino guinea pig
# Method: (§1) The technique employed in this test was basically that of Smith and Freuler, Bibl. anat., 1973, 12, 229-234, which utilises the Technicon Autocounter and provides a completely automated system for counting platelets and cells. Blood is continuously sampled from a suitable artery and to avoid the use of an anticoagulant, a double cannula is used which enables 3.8%, w/v aqueous trisodium citrate to be pumped to the tip of the cannula and the citrated blood then to be removed at 0.1 ml/minute and diluted in the manifold where the red cells are lysed with 1% w/v ammonium oxalate/0.002% w/v saponin solution. The platelets are then counted optically and the count continuously recorded on precalibrated chart paper.
# (§2) In three experiments, each conducted on one male albino guinea pig ([…]) anaesthetised with a mixture of allyl barbituric acid and urethane, the guinea pig was given intravenously a dose of 50 μg/kg of collagen, followed 15 minutes later by 0.35 μg/kg of 11,9-(epoxymethane) PGH2 to give two reliable platelet aggregation responses for each material. After a further period of 10 minutes, the guinea pig was treated intravenously with a dose of 1 mg/kg of 5-endo-(6'-carboxyhex-2'Z-enyl)-6-exo{1'-[N-(phenylthiocarbamoyl)hydrazono]-ethyl}-bicyclo [2,2,1] heptane prepared as described in Example 2. Commencing 5 minutes after the administration of the bicyclo [2,2,1] heptane, the alternate treatments at 15 minute intervals with collagen and 11,9-(epoxymethano) PGH2 were repeated, the second treatment with the latter compound being followed after 15 minutes by a final treatment with collagen. (In the first experiment, only, the last administration of each compound was omitted).
# [3] = system: bronchoconstriction (collagen); assay: Modified Konzett-Rossler test, inhibition of bronchoconstriction by collagen; format: in vivo, guinea pig; settings: 5 min after compound; 1 mg/kg i.v.; insufflation pressure
# Method: as §2
# (§3) The same three experiments on guinea pigs described under 1(b) are used to give a measure in a modified Konzett-Rossler test of the inhibition produced by 5-endo-(6'-carboxyhex-2'Z-enyl)-6-exo{1'[N-(phenylthiocarbamoyl)-hydrazono]ethyl}-bicyclo [2,2,1] heptane, prepared as described in Example 2, of the bronchoconstriction resulting from administration of the collagen and the PGH2 derivative. […]
# [4] = system: platelet aggregation (11,9-(epoxymethano) PGH2); assay: In vivo inhibition of platelet aggregation in guinea pigs (11,9-(epoxymethano) PGH2); set-up: species or system male albino guinea pig
# Method: as §1, with “paper. In three experiments, each conducted on one male albino guinea pig ([…]) anaesthetised with a mixture of allyl barbituric acid and urethane, the guinea pig was given intravenously a dose of 50 μg/kg of collagen, followed 15 minutes later by 0.35 μg/kg of 11,9-(epoxymethane) PGH2 to give two reliable platelet aggregation responses for each material. […] (In the first experiment, only, the last administration of each compound was omitted).” for “paper.”
# [5] = system: bronchoconstriction (PGH2 derivative); assay: Modified Konzett-Rossler test, inhibition of bronchoconstriction by 11,9-(epoxymethano) PGH2; format: in vivo, guinea pig; settings: 5 min after compound; 1 mg/kg i.v.; insufflation pressure
# Method: as §2, §3
# [6] = system: platelet aggregation (collagen); assay: In vivo inhibition of platelet aggregation in rats (collagen); set-up: species or system male Sprague-Dawley rats; settings: for Percentage Fall in platelet count on administering collagen, After, mean: mean of 6 rats, compound 1 mg/kg i.v.
# Method: as §1
# Each of a group of six male Sprague-Dawley rats anaesthetised with pentabarbitone was injected intravenously with 40 μg/kg of collagen followed, 15 minutes later, by 80 μg/kg of collagen, which gives a dose-dependent and reproducible fall in platelet count. Ten minutes after the second injection of collagen, the rats were treated intravenously with a dose of 1 mg/kg of 5-endo-(6'-carboxyhex-2'Z-enyl)-6-exo-{1'-[N-(phenylthiocarbamoyl)-hydrazono]ethyl}-bicyclo [2,2,1] heptane prepared as described in Example 2. At 5 and 20 minutes after the administration of this compound a further 40 μg/kg and 80 μg/kg of collagen, respectively, were administered. The levels of platelet aggregation resulting from the administration of the collagen before and after the administration of the bicyclo [2,2,1] heptane were recorded continuously as indicated above.
# [7] = system: rabbit aorta; assay: Rabbit aorta strip, antagonism of contraction by 11,9-(epoxymethano) PGH2 (affinity constant KB); format: cell-based; settings: in words
# Method: Spiral strips of thoracic aorta are suspended in Kreb's-Henseleit solution and aerated with 95% O2 /5% CO2 at 37° C. Tension changes are recorded with a Glass FTO3 force transducer. Initially, cumulative dose response curves to 11,9-(epoxymethano) PGH2 (2×10^-9, 1×10^-8, 5×10^-8 and 2.5×10^-7 M) are obtained. In a second experiment the individual compounds are added 30 minutes previous to the addition of the series of agonist doses. In the case of each compound, the affinity constant, KB, for the compound is calculated according to the Gaddum - Schild Equation (based on Law of Mass Action).
# (§4) [B]=molar concentration of compound
# [8] = molecular target: T1, human platelets (Homo sapiens, UniProt P21731); assay: Human platelet system, antagonism of aggregation by 11,9-(epoxymethano) PGH2 (affinity constant KB); format: cell-based; settings: in words
# T1 construct: Platelet-rich plasma is obtained from fresh, citrated human blood; endogenous in cells; host or cells: human platelets in platelet-rich plasma
# T1 sequence (P21731 1-343): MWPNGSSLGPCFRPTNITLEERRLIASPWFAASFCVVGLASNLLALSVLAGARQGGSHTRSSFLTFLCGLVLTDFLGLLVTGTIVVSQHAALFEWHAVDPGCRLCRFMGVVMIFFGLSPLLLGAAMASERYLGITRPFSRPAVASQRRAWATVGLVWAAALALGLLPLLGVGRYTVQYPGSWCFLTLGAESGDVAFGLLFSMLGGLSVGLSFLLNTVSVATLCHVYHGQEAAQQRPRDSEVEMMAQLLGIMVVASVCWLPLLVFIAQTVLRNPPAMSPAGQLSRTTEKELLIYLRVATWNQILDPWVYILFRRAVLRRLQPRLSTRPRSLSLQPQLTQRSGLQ
# Method: Platelet-rich plasma is obtained from fresh, citrated human blood. Addition of the 11,9-(epoxymethano) PGH2 (1×10^-7 to 5×10^-7 M) causes immediate aggregation recorded as an increase in light transmission (600 nm). In a second experiment the individual compounds are added five minutes previous to the addition of the PGH2 analogue. The dose of the PGH2 analogue added is then increased to a level which gives a similar response to that obtained in the absence of antagonist. The affinity constant, KB, for the compound is calculated according to the Gaddum - Schild Equation (based on Law of Mass Action).
# as §4
# [9] = system: platelet; assay: Block of the aggregatory action of arachidonic acid on platelets; format: cell-based; settings: in words
# [10] = collagen 50 μg/kg, average of experiments
# [11] = PGH2 deriv. 0.35 μg/kg, average of experiments
structure (smiles),measurement,setting,value
"CC(=NNC(=S)Nc1ccccc1)[C@H]1[C@@H]2CC[C@@H](C2)[C@@H]1C/C=C\CCCC(=O)O (relative stereo) [Example 2, 5-endo(6'-Carboxyhex-2'Z-enyl)-6-exo-{1'-[N-(phenylthiocarbamoyl)-hydrazono]-ethyl}-bicyclo [2,2,1] heptane]",contractile action of noradrenaline (α-adrenoceptors),[1],do not block the contractile action of noradrenaline
same,"Percentage Inhibition of platelet aggregation, 5 min","[2]; collagen 50 μg/kg, 5 min after 1 mg/kg i.v. compound, single animal",73.6 Percentage and 64.5 Percentage and 68.3 Percentage
same,"Percentage Inhibition of platelet aggregation, 35 min","[2]; collagen 50 μg/kg, 35 min after 1 mg/kg i.v. compound, single animal",67.3 Percentage and 64.4 Percentage and 56.1 Percentage
same,"Percentage Inhibition of platelet aggregation, 65 min","[2]; collagen 50 μg/kg, 65 min after 1 mg/kg i.v. compound, single animal",56.1 Percentage and 51.5 Percentage
same,"Percentage Inhibition of platelet aggregation, 5 min, Average",[2]; [10],68.8 Percentage
same,"Percentage Inhibition of platelet aggregation, 35 min, Average",[2]; [10],62.6 Percentage
same,"Percentage Inhibition of platelet aggregation, 65 min, Average",[2]; [10],53.8 Percentage
same,"platelet aggregation produced by collagen, in words","[2]; guinea pig, 1 mg/kg i.v.",caused an inhibition of the platelet aggregation
same,inhibition of the bronchoconstricting effect of collagen,[3],complete inhibition
same,"Percentage Inhibition of platelet aggregation, 20 min","[4]; PGH2 deriv. 0.35 μg/kg, 20 min after 1 mg/kg i.v. compound, single animal",75.7 Percentage and 85.2 Percentage and 83.7 Percentage
same,"Percentage Inhibition of platelet aggregation, 50 min","[4]; PGH2 deriv. 0.35 μg/kg, 50 min after 1 mg/kg i.v. compound, single animal",65.5 Percentage and 64.6 Percentage
same,"Percentage Inhibition of platelet aggregation, 20 min, Average",[4]; [11],81.5 Percentage
same,"Percentage Inhibition of platelet aggregation, 50 min, Average",[4]; [11],65.1 Percentage
same,"platelet aggregation produced by 11,9-(epoxymethano) PGH2, in words","[4]; guinea pig, 1 mg/kg i.v.",caused an inhibition of the platelet aggregation
same,inhibition of the bronchoconstricting effect of the PGH2 derivative,[5],complete inhibition
same,average response to collagen,"[6]; 40 μg/kg collagen, before vs after compound 1 mg/kg i.v.",significantly reduced
same,"P, one tailed paired t-test, reduction of average response","[6]; 40 μg/kg collagen, t=2.25 (5Df)",< 0.05
same,"Percentage Fall in platelet count on administering collagen, After, individual rat","[6]; collagen 40 μg/kg i.v., 5 min after 1 mg/kg i.v. compound",14.0 Percentage and 13.3 Percentage and 14.6 Percentage and 25.0 Percentage and 18.5 Percentage and 19.4 Percentage
same,"Percentage Fall in platelet count on administering collagen, After, mean",[6]; collagen 40 μg/kg,17.47 Percentage
same,"Percentage Fall in platelet count on administering collagen, After, individual rat","[6]; collagen 80 μg/kg i.v., 20 min after 1 mg/kg i.v. compound",18.3 Percentage and 27.1 Percentage and 28.4 Percentage and 34.4 Percentage and 34.5 Percentage and 28.2 Percentage
same,"Percentage Fall in platelet count on administering collagen, After, mean",[6]; collagen 80 μg/kg,28.5 Percentage
same,antagonist in the rabbit aorta strip test,[7],pure antagonists in the rabbit aorta strip test
same,antagonist in the platelet test,[8],antagonists in the platelet test
same,aggregatory action of arachidonic acid,[9],block the aggregatory action of arachidonic acid
